In the oligonucleotide strings, read from the 5' end, every base follows the letter of its sugar. An asterisk marks phosphorothioate; unmarked linkages are phosphodiester. Other units and linkages are bracketed, terminal groups are in braces. A string of capitals states the bases alone. e = 2'-O-(2-methoxyethyl) (MOE); [5mC] = 5-methylcytosine; d = 2'-deoxy (DNA)
System: human Factor XI mRNA
Test: Antisense inhibition in HepG2 cells by microwalk gapmers, 75 nM, lipofectin (Example 3)
Assay type: cell-based
Settings: for % inhibition of human Factor XI mRNA levels: HepG2 cells, 75 nM
Procedure: These gapmers were designed by creating gapmers shifted slightly upstream and downstream (i.e. “microwalk”) of the original gapmers from Table 3. Gapmers were also created with various motifs, e.g. 5-10-5 MOE, 3-14-3 MOE, and 2-13-5 MOE. These gapmers were tested in vitro. Cultured HepG2 cells at a density of 10,000 cells per well were transfected using lipofectin reagent with 75 nM antisense oligonucleotide. After a treatment period of approximately 24 hours, RNA was isolated from the cells and Factor XI mRNA levels were measured by quantitative real-time PCR. Factor XI mRNA levels were adjusted according to total RNA content, as measured by RIBOGREEN®. Results are presented as percent inhibition of Factor XI, relative to untreated control cells.
The chimeric antisense oligonucleotides in Table 4 were designed as 5-10-5 MOE, 3-14-3 MOE, and 2-13-5 MOE gapmers. The first listed gapmers in Table 4 are the original gapmers (see Table 3) from which the remaining gapmers were designed via microwalk and are designated by an asterisk. The 5-10-5 gapmers are 20 nucleotides in length, wherein the central gap segment is comprised of 10 2′-deoxynucleotides and is flanked on both sides (in the 5′ and 3′ directions) by wings comprising 5 nucleotides each. The 3-14-3 gapmers are 20 nucleotides in length, wherein the central gap segment is comprised of 14 2′-deoxynucleotides and is flanked on both sides (in the 5′ and 3′ directions) by wings comprising 3 nucleotides each. The 2-13-5 gapmers are 20 nucleotides in length, wherein the central gap segment is comprised of 13 2′-deoxynucleotides. The central gap is flanked on the 5′ end with a wing comprising 2 nucleotides and on the 3′ end with a wing comprising 5 nucleotides. For each of the motifs (5-10-5, 3-14-3, and 2-13-5), each nucleotide in the 5′ wing segment and each nucleotide in the 3′ wing segment has a 2′-MOE modification. The internucleoside linkages throughout each gapmer are phosphorothioate (P═S) linkages. All cytidine residues throughout each gapmer are 5-methylcytidines. “Target start site” indicates the 5′-most nucleotide to which the gapmer is targeted. “Target stop site” indicates the 3′-most nucleotide to which the gapmer is targeted. Each gapmer listed in Table 4 is targeted to SEQ ID NO: 1 (GENBANK Accession No. NM_000128.3).

[1] = oligonucleotides targeted to nucleobases 1062 to 1091 of SEQ ID NO: 1
[2] = oligonucleotides targeted to nucleobases 738 to 762 of SEQ ID NO: 1
[3] = oligonucleotides targeted to nucleobases 1018 to 1042 of SEQ ID NO: 1
[4] = oligonucleotides targeted to nucleobases 1275 to 1318 of SEQ ID NO: 1

In the case of “416844 (antisense e[5mC]*eT*eT*eT*eG*dA*dG*dA*dT*dT*d[5mC]*dT*dT*dT*dG*eG*eG*e[5mC]*e[5mC]*eA) [compound 416844]”, the “% inhibition of human Factor XI mRNA levels” value [1] is reported as 90%.
“416845 (antisense eT*e[5mC]*eT*eT*eT*dG*dA*dG*dA*dT*dT*d[5mC]*dT*dT*dT*eG*eG*eG*e[5mC]*e[5mC]) [compound 416845]” was tested, and the “% inhibition of human Factor XI mRNA levels” value [1] was 86%.
With “416846 (antisense eT*eT*e[5mC]*eT*eT*dT*dG*dA*dG*dA*dT*dT*d[5mC]*dT*dT*eT*eG*eG*eG*e[5mC]) [compound 416846]” the “% inhibition of human Factor XI mRNA levels” value [1] was 72%.
For “416847 (antisense eT*eT*eT*e[5mC]*eT*dT*dT*dG*dA*dG*dA*dT*dT*d[5mC]*dT*eT*eT*eG*eG*eG) [compound 416847]”, the “% inhibition of human Factor XI mRNA levels” value [1] was 50%.
“416894 (antisense eA*eT*eG*d[5mC]*d[5mC]*d[5mC]*dT*dT*d[5mC]*dA*dT*dG*dT*d[5mC]*dT*dA*dG*eG*eT*e[5mC]) [compound 416894]” was tested, and the “% inhibition” value (HepG2, 75 nM, approximately 24 hours, nucleobases 656 to 704 of SEQ ID NO: 1) was 84%.
For “416898 (antisense e[5mC]*e[5mC]*eG*dT*dG*d[5mC]*dA*dT*d[5mC]*dT*dT*dT*d[5mC]*dT*dT*dG*dG*e[5mC]*eA*eT) [compound 416898]”, the “% inhibition of human Factor XI mRNA levels” value [2] was 88%.
“416899 (antisense eT*e[5mC]*e[5mC]*dG*dT*dG*d[5mC]*dA*dT*d[5mC]*dT*dT*dT*d[5mC]*dT*dT*dG*eG*e[5mC]*eA) [compound 416899]” was tested, and the “% inhibition of human Factor XI mRNA levels” value [2] was 86%.
“416900 (antisense eA*eT*e[5mC]*d[5mC]*dG*dT*dG*d[5mC]*dA*dT*d[5mC]*dT*dT*dT*d[5mC]*dT*dT*eG*eG*e[5mC]) [compound 416900]” was tested, and the “% inhibition of human Factor XI mRNA levels” value [2] was 90%.
“416901 (antisense e[5mC]*eA*eT*d[5mC]*d[5mC]*dG*dT*dG*d[5mC]*dA*dT*d[5mC]*dT*dT*dT*d[5mC]*dT*eT*eG*eG) [compound 416901]” was tested, and the “% inhibition of human Factor XI mRNA levels” value [2] was 65%.
With “416902 (antisense eT*e[5mC]*eA*dT*d[5mC]*d[5mC]*dG*dT*dG*d[5mC]*dA*dT*d[5mC]*dT*dT*dT*d[5mC]*eT*eT*eG) [compound 416902]” the “% inhibition of human Factor XI mRNA levels” value [2] was 46%.
With “416903 (antisense eG*eT*e[5mC]*dA*dT*d[5mC]*d[5mC]*dG*dT*dG*d[5mC]*dA*dT*d[5mC]*dT*dT*dT*e[5mC]*eT*eT) [compound 416903]” the “% inhibition of human Factor XI mRNA levels” value [2] was 88%.
With “416904 (antisense e[5mC]*e[5mC]*eG*dG*dG*dA*dT*dG*dA*dT*dG*dA*dG*dT*dG*d[5mC]*dA*eG*eA*eT) [compound 416904]” the “% inhibition of human Factor XI mRNA levels” value [3] was 90%.
With “416905 (antisense eA*e[5mC]*e[5mC]*dG*dG*dG*dA*dT*dG*dA*dT*dG*dA*dG*dT*dG*d[5mC]*eA*eG*eA) [compound 416905]” the “% inhibition of human Factor XI mRNA levels” value [3] was 85%.
“416906 (antisense eA*eA*e[5mC]*d[5mC]*dG*dG*dG*dA*dT*dG*dA*dT*dG*dA*dG*dT*dG*e[5mC]*eA*eG) [compound 416906]” was tested, and the “% inhibition of human Factor XI mRNA levels” value [3] was 88%.
“416907 (antisense e[5mC]*eA*eA*d[5mC]*d[5mC]*dG*dG*dG*dA*dT*dG*dA*dT*dG*dA*dG*dT*eG*e[5mC]*eA) [compound 416907]” was tested, and the “% inhibition of human Factor XI mRNA levels” value [3] was 90%.
“416909 (antisense eA*eT*eT*d[5mC]*dT*dT*dT*dG*dG*dG*d[5mC]*d[5mC]*dA*dT*dT*d[5mC]*d[5mC]*eT*eG*eG) [compound 416909]” was tested, and the “% inhibition of human Factor XI mRNA levels” value [1] was 78%.
With “416910 (antisense eG*eA*eT*dT*d[5mC]*dT*dT*dT*dG*dG*dG*d[5mC]*d[5mC]*dA*dT*dT*d[5mC]*e[5mC]*eT*eG) [compound 416910]” the “% inhibition of human Factor XI mRNA levels” value [1] was 90%.
With “416911 (antisense eA*eG*eA*dT*dT*d[5mC]*dT*dT*dT*dG*dG*dG*d[5mC]*d[5mC]*dA*dT*dT*e[5mC]*e[5mC]*eT) [compound 416911]” the “% inhibition of human Factor XI mRNA levels” value [1] was 90%.
In the case of “416912 (antisense eG*eA*eG*dA*dT*dT*d[5mC]*dT*dT*dT*dG*dG*dG*d[5mC]*d[5mC]*dA*dT*eT*e[5mC]*e[5mC]) [compound 416912]”, the “% inhibition of human Factor XI mRNA levels” value [1] is reported as 92%.
“416913 (antisense eT*eG*eA*dG*dA*dT*dT*d[5mC]*dT*dT*dT*dG*dG*dG*d[5mC]*d[5mC]*dA*eT*eT*e[5mC]) [compound 416913]” was tested, and the “% inhibition of human Factor XI mRNA levels” value [1] was 93%.
In the case of “416914 (antisense eT*eT*eG*dA*dG*dA*dT*dT*d[5mC]*dT*dT*dT*dG*dG*dG*d[5mC]*d[5mC]*eA*eT*eT) [compound 416914]”, the “% inhibition of human Factor XI mRNA levels” value [1] is reported as 87%.
With “416915 (antisense eT*eT*eT*dG*dA*dG*dA*dT*dT*d[5mC]*dT*dT*dT*dG*dG*dG*d[5mC]*e[5mC]*eA*eT) [compound 416915]” the “% inhibition of human Factor XI mRNA levels” value [1] was 79%.
For “416916 (antisense e[5mC]*eT*eT*dT*dG*dA*dG*dA*dT*dT*d[5mC]*dT*dT*dT*dG*dG*dG*e[5mC]*e[5mC]*eA) [compound 416916]”, the “% inhibition of human Factor XI mRNA levels” value [1] was 91%.
“416917 (antisense eT*e[5mC]*eT*dT*dT*dG*dA*dG*dA*dT*dT*d[5mC]*dT*dT*dT*dG*dG*eG*e[5mC]*e[5mC]) [compound 416917]” was tested, and the “% inhibition of human Factor XI mRNA levels” value [1] was 92%.
For “416918 (antisense eT*eT*e[5mC]*dT*dT*dT*dG*dA*dG*dA*dT*dT*d[5mC]*dT*dT*dT*dG*eG*eG*e[5mC]) [compound 416918]”, the “% inhibition of human Factor XI mRNA levels” value [1] was 63%.
In the case of “416919 (antisense eT*eT*eT*d[5mC]*dT*dT*dT*dG*dA*dG*dA*dT*dT*d[5mC]*dT*dT*dT*eG*eG*eG) [compound 416919]”, the “% inhibition of human Factor XI mRNA levels” value [1] is reported as 27%.
In the case of “416920 (antisense eA*e[5mC]*eA*dG*dT*dT*dT*d[5mC]*dT*dG*dG*d[5mC]*dA*dG*dG*d[5mC]*d[5mC]*eT*e[5mC]*eG) [compound 416920]”, the “% inhibition of human Factor XI mRNA levels” value [4] is reported as 88%.
“416921 (antisense e[5mC]*eA*e[5mC]*dA*dG*dT*dT*dT*d[5mC]*dT*dG*dG*d[5mC]*dA*dG*dG*d[5mC]*e[5mC]*eT*e[5mC]) [compound 416921]” was tested, and the “% inhibition of human Factor XI mRNA levels” value [4] was 88%.
“416927 (antisense eT*eT*eG*dG*dT*dG*d[5mC]*dA*d[5mC]*dA*dG*dT*dT*dT*d[5mC]*dT*dG*eG*e[5mC]*eA) [compound 416927]” was tested, and the “% inhibition of human Factor XI mRNA levels” value [4] was 87%.
With “416928 (antisense eA*eT*eT*dG*dG*dT*dG*d[5mC]*dA*d[5mC]*dA*dG*dT*dT*dT*d[5mC]*dT*eG*eG*e[5mC]) [compound 416928]” the “% inhibition of human Factor XI mRNA levels” value [4] was 91%.
“416929 (antisense e[5mC]*eA*eT*dT*dG*dG*dT*dG*d[5mC]*dA*d[5mC]*dA*dG*dT*dT*dT*d[5mC]*eT*eG*eG) [compound 416929]” was tested, and the “% inhibition of human Factor XI mRNA levels” value [4] was 83%.
With “416930 (antisense eG*e[5mC]*eA*dT*dT*dG*dG*dT*dG*d[5mC]*dA*d[5mC]*dA*dG*dT*dT*dT*e[5mC]*eT*eG) [compound 416930]” the “% inhibition of human Factor XI mRNA levels” value [4] was 87%.
For “416932 (antisense e[5mC]*eG*eG*d[5mC]*dA*dT*dT*dG*dG*dT*dG*d[5mC]*dA*d[5mC]*dA*dG*dT*eT*eT*e[5mC]) [compound 416932]”, the “% inhibition of human Factor XI mRNA levels” value [4] was 92%.
For “416933 (antisense eA*e[5mC]*eG*dG*d[5mC]*dA*dT*dT*dG*dG*dT*dG*d[5mC]*dA*d[5mC]*dA*dG*eT*eT*eT) [compound 416933]”, the “% inhibition of human Factor XI mRNA levels” value [4] was 92%.

Source: patent US20120083522A1, “MODULATION OF INFLAMMATORY RESPONSES BY FACTOR XI” (Isis Pharmaceuitcals, inc., priority 2009, published 2012)
